From US20250154288A1, “CYTOTOXICITY TARGETING CHIMERAS FOR C-C CHEMOKINE RECEPTOR 2-EXPRESSING CELLS” (GLAXOSMITHKLINE INTELLECTUAL PROPERTY DEVELOPMENT LIMITED, priority 2022, published 2025) come the findings set out here.

The target in test [1] is T1, CHOK1 cells engineered to overexpress human CCR2 (Homo sapiens, UniProt P41597).
T1 construct: expressed in transfected cells; host or cells: CHOK1
In words: Antibody Dependent Cellular Cytotoxicity (ADCC) Reporter Assay. Type of test: cell-based. The conditions noted are these: with anti-cotinine antibody (human IgG1 Fc, S239D/I332E); Jurkat FcγRIIIa NFAT-luciferase reporter cells; average if several runs; read-out: ADCC Reporter Assay pEC50 (converted). The essentials: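 CHOK1-hCCR2 target cells co-incubated ~12-18 h with compound (1 pM–10 μM), anti-cotinine rabbit/human IgG1 S239D/I332E antibody (0.01–200 μg/mL) and Jurkat FcγRIIIa NFAT-luciferase reporter cells. Luminescence signal:background versus no-compound wells; EC50 from four-parameter fit, reported as pEC50, averaged over runs.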
(In general: A reporter such as luciferase makes a cellular process visible.)

In test [2] the target is Anti-cotinine antibody (SEQ ID NO: 11 / SEQ ID NO: 12). The experiment in a line: Binding of Anti-Cotinine Antibody to ARM Compounds measured by Surface Plasmon Resonance (SPR). Set-up: species or system rabbit variable region with human IgG1 Fc domain. The conditions noted are these: Biacore T200, 37° C., Kd = koff/kon, average if several runs. As to the method: Anti-cotinine antibodies having a heavy chain sequence of SEQ ID NO: 11 and a light chain sequence of SEQ ID NO: 12 (rabbit variable region with human IgG1 Fc domain containing a DE mutation (S239D/I332E)) were captured on one or more flow cells of a protein A sensor chip (Cytiva) using a Biacore T200 while reserving flow cell 1 as a reference. Following capture, a 3000 second wait step was included to reduce drift during compound analysis. ARM compounds of Formula (I) were then injected at 100 μL/min with 200 and 2000 second association and dissociation times. The entire experiment was run at 37° C. with running buffer containing 10 mM HEPES pH 7.4, 150 mM NaCl, 0.005% P20 and 1% DMSO. ARM compounds of Formula (I) were titrated with a top concentration of 200 nM using a 3-fold 5-point dilution series and a corresponding 5-injection buffer cycle was run for blank subtraction. Data were double referenced by subtracting the response of the reference flow cell from that of the antibody-containing flow cell and subsequently subtracting the referenced blank sensorgrams. Following compound analysis, the surface was regenerated using a 30 second injection of pH 1.5 glycine at a flow rate of 30 μL/min after which antibody was re-captured. The experiment was run using Biacore T200 control software and evaluated using Biacore T200 Evaluation software. Curves were fit with a 1:1 kinetic binding model to obtain kon(1/Ms), koff(1/s), Kd (M) determined as koff/kon, and residence time determined as 1/koff. (s).
Anti-cotinine antibody was tested for binding to ARMs compounds of Formula (I) of the invention in the above assay in or more experimental runs and the results are shown in Table 5 below. Affinity is reported as a pKd value. The pKd value is the negative log of the Kd value, wherein the Kd value is the dissociation constant measured in molar (M) as noted above. For compounds tested in more than one experimental run, the pKd value is reported as an average
For orientation: Surface plasmon resonance follows binding to a sensor surface in real time, without labels.

The target of test [3] is human alpha1 nicotinic acetylcholine (nACh) receptor (Homo sapiens, UniProt P02708+Q07001). In words: Nicotinic Acetylcholine Receptor Antagonism Assay (IONFlux automated patch clamp). Type of test: cell-based. Conditions: for IC50: antagonism of nAChR stimulated with acetylcholine, average if several runs; for Emax at 100 µM: maximum percentage antagonism at Maximum Concentration of Compound Tested 100 μM, read-out: Maximum Response (%). As for the experimental part: Cells expressing human alpha1 nicotinic acetylcholine (nACh) receptor (nAChR) were washed and dissociated using Trypsin containing buffer. Cells were then washed and seeded at a density of 3-5 million cells/mL and allowed to grow for 3 days. Then, 60-80 μL of cells were added to plates and incubated with dose response of an ARM compound of Formula (I) with a top concentration of either 10 μM or 100 μM. The receptor was then stimulated via addition of acetylcholine (ACh) and activation of the receptor was monitored via the IONFlux automated patch clamp system. IonFlux Data Analyzer software was utilized to perform leak subtraction and measure (min) peak current amplitude.
Sequence of human alpha1 nicotinic acetylcholine (nACh) receptor (P02708 21-457): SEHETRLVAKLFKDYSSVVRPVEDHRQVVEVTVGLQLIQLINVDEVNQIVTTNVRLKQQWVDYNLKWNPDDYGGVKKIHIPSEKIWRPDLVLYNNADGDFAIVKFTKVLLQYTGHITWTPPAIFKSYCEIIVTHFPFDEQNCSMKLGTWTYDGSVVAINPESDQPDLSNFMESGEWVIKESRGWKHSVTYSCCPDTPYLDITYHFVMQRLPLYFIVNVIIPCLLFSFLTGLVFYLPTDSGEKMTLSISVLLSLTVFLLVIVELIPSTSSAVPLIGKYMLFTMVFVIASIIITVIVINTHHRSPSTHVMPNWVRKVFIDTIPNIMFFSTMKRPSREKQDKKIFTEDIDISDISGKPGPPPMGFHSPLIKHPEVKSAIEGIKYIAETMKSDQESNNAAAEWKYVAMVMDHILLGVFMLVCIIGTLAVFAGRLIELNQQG
Sequence of human alpha1 nicotinic acetylcholine (nACh) receptor (P11230 24-501 partner): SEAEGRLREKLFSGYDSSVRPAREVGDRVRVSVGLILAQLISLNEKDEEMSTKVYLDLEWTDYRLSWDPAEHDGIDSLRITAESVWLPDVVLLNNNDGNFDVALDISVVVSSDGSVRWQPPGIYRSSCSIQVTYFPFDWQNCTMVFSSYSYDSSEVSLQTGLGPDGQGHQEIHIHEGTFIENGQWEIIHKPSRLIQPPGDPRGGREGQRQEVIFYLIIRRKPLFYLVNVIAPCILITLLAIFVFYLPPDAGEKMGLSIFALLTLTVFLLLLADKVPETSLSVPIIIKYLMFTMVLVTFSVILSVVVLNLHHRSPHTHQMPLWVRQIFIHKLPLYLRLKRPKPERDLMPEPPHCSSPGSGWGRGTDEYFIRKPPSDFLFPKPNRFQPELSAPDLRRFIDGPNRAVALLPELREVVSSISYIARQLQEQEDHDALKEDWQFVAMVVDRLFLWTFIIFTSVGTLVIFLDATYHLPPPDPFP
Sequence of human alpha1 nicotinic acetylcholine (nACh) receptor (Q07001 22-517): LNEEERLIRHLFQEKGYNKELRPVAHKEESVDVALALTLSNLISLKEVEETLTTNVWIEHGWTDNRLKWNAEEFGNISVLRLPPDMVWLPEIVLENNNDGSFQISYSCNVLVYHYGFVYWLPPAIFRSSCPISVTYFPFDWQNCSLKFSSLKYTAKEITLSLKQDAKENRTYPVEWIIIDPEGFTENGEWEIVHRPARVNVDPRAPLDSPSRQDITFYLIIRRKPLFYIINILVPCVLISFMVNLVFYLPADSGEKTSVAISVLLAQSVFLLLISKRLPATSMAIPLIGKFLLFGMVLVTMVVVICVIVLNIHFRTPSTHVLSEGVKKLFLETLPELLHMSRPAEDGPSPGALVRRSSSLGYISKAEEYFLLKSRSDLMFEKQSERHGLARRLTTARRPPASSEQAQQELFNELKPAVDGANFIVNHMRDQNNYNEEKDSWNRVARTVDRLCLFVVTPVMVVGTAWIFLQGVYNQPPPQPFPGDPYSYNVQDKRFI
Data processing: (1) Current values recorded for vehicle only applications in individual traps/patterns were subtracted from corresponding current amplitude values for control, test article and control+test article. (2) Control response was calculated as % of the average response of the 3rd out of total 3 ACh (10 mM) applications alone. In rare situations, if the 3rd ACh response was obscured due to technical artifacts, the 2nd and/or 1st ACh (10 mM) application was considered as control. The peak current amplitude generated in the presence of each test article concentration was then used to calculate the % inhibition as compared to control response (10 mM ACh alone). These estimates were further corrected for vehicle response and run down corrected by normalizing with time matched control responses (10 mM ACh alone). The corrected percentages were then fit with a non-linear function in GraphPad Prism 6 (or later versions) to determine the IC50.
Exclusion criteria: (i) any n's with poor recording quality, (ii) control current amplitude <500 pA or (iii) significant outliers, as determined by the Grubbs' test.
ARMs compounds of Formula (I) of the invention were tested for antagonism of the nAChR in the above assay in […] experimental runs and the results are shown in Table 6 below. Antagonistic activity of the compounds of Formula (I) of the invention is reported as an IC50 value (half maximal inhibitory concentration) and the maximum percentage antagonism observed at the highest concentration of compound of Formula (I) tested, as indicated in Table 6. For compounds tested in more than one experimental run, the IC50 value is reported as an average.
Background: Patch clamp records ionic current or voltage across a cell membrane.

Regarding `CO[C@@H]1COCC[C@@H]1N[C@@H]1CC[C@@](C(=O)N2Cc3cc(C(F)(F)F)cnc3[C@@H](NC(=O)[C@H]3CC[C@H](NC(=O)CCCO[C@H]4CC[C@H](OCCNC(=O)[C@H]5CC(=O)N(C)[C@@H]5c5cccnc5)CC4)CC3)C2)(C(C)C)C1` [Example 15, (2S,3S)-N-(2-(((1R,4S)-4-(4-(((1S,4R)-4-(((S)-6-((1S,3R)-1-isopropyl-3-(((3S,4S)-3-methoxytetrahydro-2H-pyran-4-yl)amino)cyclopentane-1-carbonyl)-3-(trifluoromethyl)-5,6,7,8-tetrahydro-1,6-naphthyridin-8-yl)carbamoyl)cyclohexyl)amino)-4-oxobutoxy)cyclohexyl)oxy)ethyl)-1-methyl-5-oxo-2-(pyridin-3-yl)pyrrolidine-3-carboxamide], in test [1], the EC50 is 0.2 nM. Also, the “pKd of Antibody for ARM Compound of Formula (I)” value (“pKd of Antibody” for short) in test [2] is 9.0.
The corresponding values for `CO[C@@H]1COCC[C@@H]1N[C@@H]1CC[C@](CCCCCNC(=O)[C@H]2CC[C@H](NC(=O)CCCO[C@H]3CC[C@H](OCCNC(=O)[C@H]4CC(=O)N(C)[C@@H]4c4cccnc4)CC3)CC2)(C(=O)N2CCc3ncc(C(F)(F)F)cc3C2)C1` [Example 9, (2S,3S)-N-(2-(((1R,4S)-4-(4-(((1S,4R)-4-((5-((1S,3R)-3-(((3S,4S)-3-Methoxytetrahydro-2H-pyran-4-yl)amino)-1-(3-(trifluoromethyl)-5,6,7,8-tetrahydro-1,6-naphthyridine-6-carbonyl)cyclopentyl)pentyl)carbamoyl)cyclohexyl)amino)-4-oxobutoxy)cyclohexyl)oxy)ethyl)-1-methyl-5-oxo-2-(pyridin-3-yl)pyrrolidine-3-carboxamide] are 1.26 nM and 9.2.
On the same counts, the results for `CO[C@@H]1COCC[C@@H]1N[C@@H]1CC[C@@](C(=O)N2CCc3nc(CCCCOc4cccc(C(=O)NCCOCCOCCOCCOCCOCCOCCOCCOCCOCCNC(=O)[C@H]5CC(=O)N(C)[C@@H]5c5cccnc5)c4)c(C(F)(F)F)cc3C2)(C(C)C)C1` [Example 22, (2S,3S)—N-(1-(3-(4-(6-((1S,3R)-1-Isopropyl-3-(((3S,4S)-3-methoxytetrahydro-2H-pyran-4-yl)amino)cyclopentane-1-carbonyl)-3-(trifluoromethyl)-5,6,7,8-tetrahydro-1,6-naphthyridin-2-yl)butoxy)phenyl)-1-oxo-5,8,11,14,17,20,23,26,29-nonaoxa-2-azahentriacontan-31-yl)-1-methyl-5-oxo-2-(pyridin-3-yl)pyrrolidine-3-carboxamide] are 1.58 nM and 9.3.
On to `CO[C@@H]1COCC[C@@H]1N[C@@H]1CC[C@](CCCCNC(=O)[C@H]2CC[C@H](NC(=O)CCCO[C@H]3CC[C@H](OCCNC(=O)[C@H]4CC(=O)N(C)[C@@H]4c4cccnc4)CC3)CC2)(C(=O)N2CCc3ncc(C(F)(F)F)cc3C2)C1` [Example 7, (2S,3S)-N-(2-(((1R,4S)-4-(4-(((1S,4R)-4-((4-((1S,3R)-3-(((3S,4S)-3-Methoxytetrahydro-2H-pyran-4-yl)amino)-1-(3-(trifluoromethyl)-5,6,7,8-tetrahydro-1,6-naphthyridine-6-carbonyl)cyclopentyl)butyl)carbamoyl)cyclohexyl)amino)-4-oxobutoxy)cyclohexyl)oxy)ethyl)-1-methyl-5-oxo-2-(pyridin-3-yl)pyrrolidine-3-carboxamide], for which, in test [3], it took 94 µM to reach half-maximal inhibition (IC50) and the Emax at 100 µM came to 54%. Also, the EC50 in test [1] was 2.51 nM. The “pKd of Antibody” value in test [2] is reported as 9.2.
On the same counts, the results for `CO[C@@H]1COCC[C@@H]1N[C@@H]1CC[C@](CCCNC(=O)[C@H]2CC[C@H](NC(=O)CCCO[C@H]3CC[C@H](OCCNC(=O)[C@H]4CC(=O)N(C)[C@@H]4c4cccnc4)CC3)CC2)(C(=O)N2CCc3ncc(C(F)(F)F)cc3C2)C1` [Example 3, (2S,3S)-N-(2-(((1R,4S)-4-(4-(((1S,4R)-4-((3-((1S,3R)-3-(((3S,4S)-3-Methoxytetrahydro-2H-pyran-4-yl)amino)-1-(3-(trifluoromethyl)-5,6,7,8-tetrahydro-1,6-naphthyridine-6-carbonyl)cyclopentyl)propyl)carbamoyl)cyclohexyl)amino)-4-oxobutoxy)cyclohexyl)oxy)ethyl)-1-methyl-5-oxo-2-(pyridin-3-yl)pyrrolidine-3-carboxamide] are above 100 µM, 38%, 0.631 nM and 9.1.
With `CO[C@@H]1COCC[C@@H]1N[C@@H]1CC[C@](CCNC(=O)[C@H]2CC[C@H](NC(=O)CCCO[C@H]3CC[C@H](OCCNC(=O)[C@H]4CC(=O)N(C)[C@@H]4c4cccnc4)CC3)CC2)(C(=O)N2CCc3ncc(C(F)(F)F)cc3C2)C1` [Example 8, (2S,3S)-N-(2-(((1R,4S)-4-(4-(((1R,4R)-4-((2-((1R,3R)-3-(((3S,4S)-3-Methoxytetrahydro-2H-pyran-4-yl)amino)-1-(3-(trifluoromethyl)-5,6,7,8-tetrahydro-1,6-naphthyridine-6-carbonyl)cyclopentyl)ethyl)carbamoyl)cyclohexyl)amino)-4-oxobutoxy)cyclohexyl)oxy)ethyl)-1-methyl-5-oxo-2-(pyridin-3-yl)pyrrolidine-3-carboxamide], the Emax at 100 µM in test [3] worked out at 48%. Further, the EC50 in test [1] is 1.58 nM. In test [2], the “pKd of Antibody” value is recorded as 9.1.
In the case of `CO[C@@H]1COCC[C@@H]1N[C@@H]1CC[C@](CCC2CCN(C(=O)[C@H]3CC[C@H](NC(=O)CCCO[C@H]4CC[C@H](OCCNC(=O)[C@H]5CC(=O)N(C)[C@@H]5c5cccnc5)CC4)CC3)CC2)(C(=O)N2CCc3ncc(C(F)(F)F)cc3C2)C1` [Example 2, (2S,3S)—N-(2-(((1R,4S)-4-(4-(((1S,4R)-4-(4-(2-((1S,3R)-3-(((3S,4S)-3-Methoxytetrahydro-2H-pyran-4-yl)amino)-1-(3-(trifluoromethyl)-5,6,7,8-tetrahydro-1,6-naphthyridine-6-carbonyl)cyclopentyl)ethyl)piperidine-1-carbonyl)cyclohexyl)amino)-4-oxobutoxy)cyclohexyl)oxy)ethyl)-1-methyl-5-oxo-2-(pyridin-3-yl)pyrrolidine-3-carboxamide], in test [3], the IC50 (as a rule, the midpoint of a concentration-inhibition curve) was above 100 µM and the Emax at 100 µM turned out to be 40%. Moreover, in test [1], the EC50 was 12.6 nM. Also, the “pKd of Antibody” value in test [2] is given as 9.2.
